Read-outs that look alike come from different tables or passages of the source.
Legend:
BRD4 BD1 = molecular target: T1, BRD4 BD1 (Homo sapiens, UniProt O60885); experiment: AlphaScreen binding assay, BRD4 Bromodomain 1
T1 construct: made in house
Procedure, shortened: (§1)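 An AlphaScreen competition format was used with His-BRD4 BD1 or BD2 and biotin-H4 K5/8/12/16-acetyl peptide, each at matched final levels of 50 nM (BD1) or 100 nM (BD2). Incubation in HEPES/NaCl buffer with 0.1% BSA and 0.01% Triton X-100 ran ≥1 h before IC50 determination.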

BRD4 BD2 = molecular target: T2, BRD4 BD2 (Homo sapiens, UniProt O60885); experiment: AlphaScreen binding assay, BRD4 Bromodomain 2
T2 construct: made in house
Procedure, shortened: as §1

MV4-11 cells = experiment: Oncology cell growth assay (3-day proliferation, CellTiter-Glo); assay type: cell-based; settings: Homo sapiens, AML cell line MV4-11, 72 hours, compounds grouped by IC50 range, read-out: MV4-11 IC50 (inhibition of proliferation, gIC50)
Procedure, shortened: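 Luminescence from CellTiter-Glo served as the growth read-out after MV4-11 cells (3000/well) were cultured with compound for 72 hours. Final concentrations spanned 10 to 0.0045 μM in 3-fold steps. gIC50 values were derived by four-parameter logistic fitting relative to DMSO and cell-free controls.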

| Structure (SMILES) | IC50 (BRD4 BD1) [nM] | IC50 (BRD4 BD2) [nM] | IC50 (MV4-11 cells; MV4-11, 72 h) [nM] | IC50 (MV4-11 cells) [nM] |
| --- | --- | --- | --- | --- |
| CC(=O)N1c2ccc(-c3cnn(C4CNC4)c3)cc2N(C(=O)OC2CC(F)(F)C2)C[C@@H]1C [Example I-152, (S)-3,3-difluorocyclobutyl 4-acetyl-7-(1-(azetidin-3-yl)-1H-pyrazol-4-yl)-3-methyl-3,4-dihydroquinoxaline-1(2H)-carboxylate] | 100 to 1000 | < 50 | 100 to 500 | – |
| CC(=O)N1c2ccc(-c3cnn(C4CCNCC4)c3)cc2N(C(=O)OC2CCC(F)(F)CC2)C[C@@H]1C [Example I-153, (S)-4,4-difluorocyclohexyl 4-acetyl-3-methyl-7-(1-(piperidin-4-yl)-1H-pyrazol-4-yl)-3,4-dihydroquinoxaline-1(2H)-carboxylate] | 100 to 1000 | 50 to 500 | 100 to 500 | – |
| CC(=O)N1c2ccc(-c3cnn(C4CCCS(=O)(=O)C4)c3)cc2N(C(=O)OC2CCC2)C[C@@H]1C (stereo partly drawn) [Example I-158, cyclobutyl (3S)-4-acetyl-7-[1-(1,1-dioxo-16-thian-3-yl)-1H-pyrazol-4-yl]-3-methyl-1,2,3,4-tetrahydroquinoxaline-1-carboxylate] | 100 to 1000 | < 50 | 100 to 500 | – |
| CC(=O)N1c2ccc(-c3cnn(C4CCCS(=O)(=O)C4)c3)cc2N(C(=O)OC2CCOCC2)C[C@@H]1C (stereo partly drawn) [Example I-161, oxan-4-yl (3S)-4-acetyl-7-[1-(1,1-dioxo-1λ^6-thian-3-yl)-1H-pyrazol-4-yl]-3-methyl-1,2,3,4-tetrahydroquinoxaline-1-carboxylate] | 100 to 1000 | 50 to 500 | 100 to 500 | – |
| CC(=O)N1c2ccc(-c3cnn(C4CCCS(=O)(=O)C4)c3)cc2N(C(=O)OC2CC(F)(F)C2)C[C@@H]1C (stereo partly drawn) [Example I-162, 3,3-difluorocyclobutyl (3S)-4-acetyl-7-[1-(1,1-dioxo-1λ^6-thian-3-yl)-1H-pyrazol-4-yl]-3-methyl-1,2,3,4-tetrahydroquinoxaline-1-carboxylate] | 100 to 1000 | 50 to 500 | 100 to 500 | – |
| CC(=O)N1c2ccc(-c3cnn(C4CC4)c3)cc2N(c2nn(C)c3c(F)cccc23)C[C@@H]1C [Example I-179, 1-[(2S)-6-(1-cyclopropyl-1H-pyrazol-4-yl)-4-(7-fluoro-1-methyl-1H-indazol-3-yl)-2-methyl-1,2,3,4-tetrahydroquinoxalin-1-yl]ethan-1-one] | 100 to 1000 | < 50 | 100 to 500 | – |
| CC(=O)N1c2ccc(-c3cnn(CCO)c3)cc2N(c2nn(C)c3c(F)cccc23)C[C@@H]1C [Example I-180, 1-[(2S)-4-(7-fluoro-1-methyl-1H-indazol-3-yl)-6-[1-(2-hydroxyethyl)-1H-pyrazol-4-yl]-2-methyl-1,2,3,4-tetrahydroquinoxalin-1-yl]ethan-1-one] | 1000 to 10000 | < 50 | 100 to 500 | – |
| CC(=O)N1c2ccc(-c3cnn(C4CCNCC4)c3)cc2N(c2nn(C)c3ccccc23)C[C@@H]1C [Example I-181, 1-[(2S)-2-methyl-4-(1-methyl-1H-indazol-3-yl)-6-[1-(piperidin-4-yl)-1H-pyrazol-4-yl]-1,2,3,4-tetrahydroquinoxalin-1-yl]ethan-1-one] | 100 to 1000 | < 50 | < 100 | – |
| CC(=O)N1c2ccc(-c3cnn(C4CCNCC4)c3)cc2N(c2nn(C)c3cnccc23)C[C@@H]1C [Example I-182, (S)-1-(2-methyl-4-(1-methyl-1H-pyrazolo[3,4-c]pyridin-3-yl)-6-(1-(piperidin-4-yl)-1H-pyrazol-4-yl)-3,4-dihydroquinoxalin-1(2H)-yl)ethanone] | 100 to 1000 | < 50 | 100 to 500 | – |
| CC(=O)N1c2ccc(-c3cnn(C4CC4)c3)cc2N(c2nn(C)c3cccc(F)c23)C[C@@H]1C [Example I-183, 1-[(2S)-6-(1-cyclopropyl-1H-pyrazol-4-yl)-4-(4-fluoro-1-methyl-1H-indazol-3-yl)-2-methyl-1,2,3,4-tetrahydroquinoxalin-1-yl]ethan-1-one] | 100 to 1000 | < 50 | 100 to 500 | – |
| CC(=O)N1c2ccc(-c3cnn(C4CC4)c3)cc2N(c2nn(C)c3ncccc23)C[C@@H]1C [Example I-184, 1-[(2S)-6-(1-cyclopropyl-1H-pyrazol-4-yl)-2-methyl-4-{1-methyl-1H-pyrazolo[3,4-b]pyridin-3-yl}-1,2,3,4-tetrahydroquinoxalin-1-yl]ethan-1-one] | 100 to 1000 | 50 to 500 | 100 to 500 | – |
| CC(=O)N1c2ccc(-c3cnn(C4CC4)c3)cc2N(c2nn(C)c3cnccc23)C[C@@H]1C [Example I-185, 1-[(2S)-6-(1-cyclopropyl-1H-pyrazol-4-yl)-2-methyl-4-{1-methyl-1H-pyrazolo[3,4-c]pyridin-3-yl}-1,2,3,4-tetrahydroquinoxalin-1-yl]ethan-1-one] | 100 to 1000 | < 50 | < 100 | – |
| CC(=O)N1c2ccc(-c3cnn(C4CC4)c3)cc2N(c2nn(C)c3ccncc23)C[C@@H]1C [Example I-186, 1-[(2S)-6-(1-cyclopropyl-1H-pyrazol-4-yl)-2-methyl-4-{1-methyl-1H-pyrazolo[4,3-c]pyridin-3-yl}-1,2,3,4-tetrahydroquinoxalin-1-yl]ethan-1-one] | 100 to 1000 | 50 to 500 | 100 to 500 | – |
| CC(=O)N1c2ccc(-c3cnn(C4CC4)c3)cc2N(c2nn(C)c3cccnc23)C[C@@H]1C [Example I-187, 1-[(2S)-6-(1-cyclopropyl-1H-pyrazol-4-yl)-2-methyl-4-{1-methyl-1H-pyrazolo[4,3-b]pyridin-3-yl}-1,2,3,4-tetrahydroquinoxalin-1-yl]ethan-1-one] | 1000 to 10000 | 50 to 500 | > 500 | – |
| CC(=O)N1c2ccc(-c3cnn(CCO)c3)cc2N(c2nn(C)c3cc(F)ccc23)C[C@@H]1C [Example I-188, 1-[(2S)-4-(6-fluoro-1-methyl-1H-indazol-3-yl)-6-[1-(2-hydroxyethyl)-1H-pyrazol-4-yl]-2-methyl-1,2,3,4-tetrahydroquinoxalin-1-yl]ethan-1-one] | 100 to 1000 | < 50 | 100 to 500 | – |
| CC(=O)N1c2ccc(-c3cnn(CCO)c3)cc2N(c2nn(C)c3ccc(F)cc23)C[C@@H]1C [Example I-189, 1-[(2S)-4-(5-fluoro-1-methyl-1H-indazol-3-yl)-6-[1-(2-hydroxyethyl)-1H-pyrazol-4-yl]-2-methyl-1,2,3,4-tetrahydroquinoxalin-1-yl]ethan-1-one] | 1000 to 10000 | 50 to 500 | 100 to 500 | – |
| CC(=O)N1c2ccc(-c3cnn(CCO)c3)cc2N(c2nn(C)c3cccc(F)c23)C[C@@H]1C [Example I-190, 1-[(2S)-4-(4-fluoro-1-methyl-1H-indazol-3-yl)-6-[1-(2-hydroxyethyl)-1H-pyrazol-4-yl]-2-methyl-1,2,3,4-tetrahydroquinoxalin-1-yl]ethan-1-one] | 100 to 1000 | < 50 | 100 to 500 | – |
| CC(=O)N1c2ccc(-c3cnn(C4CCNCC4)c3)cc2N(C(=O)Oc2ccc(F)cc2F)C[C@@H]1C [Example I-191, 2,4-difluorophenyl (S)-4-acetyl-3-methyl-7-(1-(piperidin-4-yl)-1H-pyrazol-4-yl)-3,4-dihydroquinoxaline-1(2H)-carboxylate] | 100 to 1000 | < 50 | – | 100 to 500 |
| CNC(=O)N1c2ncc(-c3cnn(C4CC4)c3)cc2N(C(=O)OC(C)C)C[C@@H]1C [Example I-194, (S)-isopropyl 7-(1-cyclopropyl-1H-pyrazol-4-yl)-3-methyl-4-(methylcarbamoyl)-3,4-dihydropyrido[2,3-b]pyrazine-1(2H)-carboxylate] | 1000 to 10000 | 50 to 500 | – | > 500 |
| CC(=O)N1c2cc([N+](=O)[O-])c(-c3cnn(C4CC4)c3)cc2N(C(=O)OC(C)C)C[C@@H]1C [Example I-195, isopropyl (S)-4-acetyl-7-(1-cyclopropyl-1H-pyrazol-4-yl)-3-methyl-6-nitro-3,4-dihydroquinoxaline-1(2H)-carboxylate] | 100 to 1000 | > 500 | > 500 | – |
| CC(=O)N1c2cc(F)c(-c3ccc(S(C)(=O)=O)cc3)cc2N(C(=O)OC(C)C)C[C@@H]1C [Example I-196, Isopropyl (S)-4-acetyl-6-fluoro-3-methyl-7-(4-(methylsulfonyl)phenyl)-3,4-dihydroquinoxaline-1(2H)-carboxylate] | 1000 to 10000 | > 500 | > 500 | – |
| CC(=O)Nc1cc2c(cc1-c1ccc(S(C)(=O)=O)cc1)N(C(=O)OC(C)C)C[C@H](C)N2C(C)=O [Example I-197, Isopropyl (S)-6-acetamido-4-acetyl-3-methyl-7-(4-(methylsulfonyl)phenyl)-3,4-dihydroquinoxaline-1(2H)-carboxylate] | 1000 to 10000 | > 500 | > 500 | – |
| COC(=O)Nc1cc2c(cc1-c1ccc(S(C)(=O)=O)cc1)N(C(=O)OC(C)C)C[C@H](C)N2C(C)=O [Example I-198, Isopropyl (S)-4-acetyl-6-((methoxycarbonyl)amino)-3-methyl-7-(4-(methylsulfonyl)phenyl)-3,4-dihydroquinoxaline-1 (2H)-carboxylate] | 1000 to 10000 | > 500 | > 500 | – |
| COc1cc2c(cc1-c1ccc(S(C)(=O)=O)cc1)N(C(=O)OC(C)C)C[C@H](C)N2C(C)=O [Example I-199, Isopropyl (S)-4-acetyl-6-methoxy-3-methyl-7-(4-(methylsulfonyl)phenyl)-3,4-dihydroquinoxaline-1(2H)-carboxylate] | 1000 to 10000 | > 500 | > 500 | – |

Source: patent US10703764B2, “Benzopiperazine compositions as BET bromodomain inhibitors” (FORMA Therapeutics, Inc., priority 2013, dated 2020)
